Legend:
5-HT2B receptor = molecular target: T1, 5-HT2B receptor (Homo sapiens, UniProt P41595); experiment: cell-based; conditions: Ca^2+ flux, agonist; read-out: 5-HT2B EC50
T1 construct: host or cells: HEK293

5-HT1A receptor = molecular target: T2, 5-HT1A receptor (Homo sapiens, UniProt P08908); experiment: cell-based; conditions: Ca^2+ flux, agonist; read-out: 5-HT1A EC50
T2 construct: host or cells: CHO cells
T2 sequence (P08908 1-422): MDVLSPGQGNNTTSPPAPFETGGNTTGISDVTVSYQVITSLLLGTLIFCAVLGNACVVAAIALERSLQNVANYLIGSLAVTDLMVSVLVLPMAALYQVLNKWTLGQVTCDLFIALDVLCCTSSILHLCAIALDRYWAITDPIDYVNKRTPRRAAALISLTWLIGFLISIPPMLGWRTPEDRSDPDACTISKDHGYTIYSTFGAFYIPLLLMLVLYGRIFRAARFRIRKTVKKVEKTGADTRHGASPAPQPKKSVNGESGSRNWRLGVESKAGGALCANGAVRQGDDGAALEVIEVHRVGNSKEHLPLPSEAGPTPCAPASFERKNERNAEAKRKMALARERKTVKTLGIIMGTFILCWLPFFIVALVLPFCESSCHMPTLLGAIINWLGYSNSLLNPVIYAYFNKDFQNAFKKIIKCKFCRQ

5-HT2A receptor [1] = molecular target: T3, 5-HT2A receptor (Homo sapiens, UniProt P28223); experiment: biochemical; assay type: binding; conditions: 1 nM [^3H]ketanserin, HEK293 stable cell line; read-out: 5-HT2A Receptor Ki (nM) ([^3H]ketanserin)
T3 construct: host or cells: HEK293
Procedure, shortened: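 Test compounds competed with [^3H]ketanserin for receptor binding, and affinity was derived from the radioligand displacement.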

[2] = Metabolic stability in human liver microsomes (HLM); assay type: in vitro ADME; conditions: for t1/2: 1 μM, 0.50 mg protein per mL; for microsomal CLint at 1 μM: both sexes, human, pooled human liver microsomes, pH 7.4, 0.50 mg protein per mL
Text: HLM Stability. Pooled HLM from adult male and female donors (Corning 452117) were used.

5-HT1B receptor = 5-HT1B receptor (Homo sapiens, UniProt P28222); experiment: cAMP accumulation agonist assay at 5-HT1B; assay type: cell-based; conditions: cAMP, agonist; read-out: 5-HT1B EC50
Procedure, shortened: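 Agonism was measured by cAMP accumulation in stably transfected cells incubated 60 min at RT. A detection reagent was then added for 60 min at RT before reading, with an 800 nM cAMP standard in blank wells.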

[3] = Metabolic stability in rat liver microsomes (RLM); conditions: for t1/2: RLM, 0.50 mg protein per mL; for microsomal CLint at 1 μM: both, rat, pooled rat liver microsomes, pH 7.4
5-HT2A receptor [4] = molecular target: T3, 5-HT2A receptor; experiment: cell-based; assay type: cell-based; conditions: Ca^2+ flux, agonist; read-out: 5-HT2A EC50
Alpha1A receptor = molecular target: T4, Alpha1A receptor (Homo sapiens, UniProt P35348); experiment: FLIPR Ca^2+ flux agonist assay at Alpha1A; assay type: cell-based
T4 sequence (P35348 1-466): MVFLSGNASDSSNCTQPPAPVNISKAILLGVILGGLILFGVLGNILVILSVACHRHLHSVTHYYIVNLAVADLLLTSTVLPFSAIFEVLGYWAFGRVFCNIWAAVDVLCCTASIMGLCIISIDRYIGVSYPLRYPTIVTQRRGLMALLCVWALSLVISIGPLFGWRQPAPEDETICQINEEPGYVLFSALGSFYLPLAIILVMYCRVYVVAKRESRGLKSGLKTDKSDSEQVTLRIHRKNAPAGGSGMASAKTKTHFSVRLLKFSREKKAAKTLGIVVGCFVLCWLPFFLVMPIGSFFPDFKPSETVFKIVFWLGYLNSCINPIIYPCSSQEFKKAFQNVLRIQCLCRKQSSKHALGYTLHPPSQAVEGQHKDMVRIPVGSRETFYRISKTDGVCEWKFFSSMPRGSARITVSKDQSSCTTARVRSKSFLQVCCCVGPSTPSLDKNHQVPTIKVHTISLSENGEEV
Method: Disclosed compounds were tested for agonist activity at several adrenergic (Alpha1A and Alpha2A) and dopamine (D1 and D2) receptor subtypes using Ca^2+ flux functional assays, with the results summarized in Table 6. Selectivity for the 5-HT2A receptor over these other targets varied depending on the specific target and compound.
(§1) Functional Assays at Adrenergic and Dopamine Receptors. Agonist activity at Alpha1A, Alpha2A, D1, and D2 receptors was determined using a FLIPR Ca^2+ flux assay at WuXi AppTec (Hong Kong) Limited according to their standard protocols. Briefly, stably transfected cells expressing the receptor of interest were grown and plated in a 384 well plate and incubated at 37° C. and 5% CO2 overnight. A solution of 250 mM probenecid in 1 mL FLIPR assay buffer was prepared fresh. This was combined with a fluorescent dye (Fluo-4 Direct™) to make a final assay concentration of 2.5 mM. Compounds were diluted 1:3.16 for 10 points and 750 nL was added to a 384 well compound plate using ECHO along with 30 μL assay buffer. The fluorescent dye was then added to the assay plate along with assay buffer to a final volume of 40 μL. The cell plate was incubated for 50 min at 37° C. and 5% CO2 and placed into the FLIPR Tetra along with the compound plate. 10 μL of references and compounds were then transferred from the compound plate into the cell plate and the fluorescent signal was read.

[5] = Metabolic stability in mouse liver microsomes (MLM); assay type: in vitro ADME; conditions: 0.50 mg protein per mL; for t1/2: MLM (CD-1), 1 μM; for microsomal CLint at 1 μM: mouse, pooled mouse liver microsomes, pH 7.4, MLM (CD-1)
Text: MLM Stability Pooled MLM from CD-1 mice (BIOIVT M00501) were used.

D2 receptor = D2 receptor (Homo sapiens, UniProt P14416); experiment: FLIPR Ca^2+ flux agonist assay at D2; assay type: cell-based
Method: as §1, with “Compounds were diluted 1:3.16 for 10 points and 750 nL was added to a 384 well compound plate using ECHO along with 30 μL assay buffer.” left out

D1 receptor = D1 receptor (Homo sapiens, UniProt P21728); experiment: FLIPR Ca^2+ flux agonist assay at D1; assay type: cell-based
Method: as §1, with “Compounds were diluted 1:3.16 for 10 points and 750 nL was added to a 384 well compound plate using ECHO along with 30 μL assay buffer.” left out

5-HT2A receptor [6] = molecular target: T3, 5-HT2A receptor; experiment: PathHunter beta-arrestin recruitment assay at 5-HT2A; assay type: cell-based; conditions: 5-HT2A beta-arrestin
Procedure, shortened: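 Cells co-express PK-tagged 5-HT2A and beta-arrestin fused to a beta-galactosidase deletion mutant, so arrestin recruitment restores enzyme activity, read by chemiluminescence; cells were held at 37° C before testing. Agonist % activity = RLU over vehicle, relative to the maximal control ligand.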

Sequence of 5-HT1B receptor (P28222 whole entry): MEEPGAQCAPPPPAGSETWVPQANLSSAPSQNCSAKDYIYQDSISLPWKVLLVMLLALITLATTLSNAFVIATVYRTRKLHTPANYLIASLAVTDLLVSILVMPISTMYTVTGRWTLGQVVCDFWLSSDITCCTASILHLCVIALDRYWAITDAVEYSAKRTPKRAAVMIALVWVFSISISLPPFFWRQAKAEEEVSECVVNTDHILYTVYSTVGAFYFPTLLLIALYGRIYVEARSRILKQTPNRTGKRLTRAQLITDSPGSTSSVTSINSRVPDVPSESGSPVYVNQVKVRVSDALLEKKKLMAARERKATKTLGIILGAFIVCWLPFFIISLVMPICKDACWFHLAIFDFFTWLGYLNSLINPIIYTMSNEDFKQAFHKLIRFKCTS
T3 sequence (P28223 whole entry): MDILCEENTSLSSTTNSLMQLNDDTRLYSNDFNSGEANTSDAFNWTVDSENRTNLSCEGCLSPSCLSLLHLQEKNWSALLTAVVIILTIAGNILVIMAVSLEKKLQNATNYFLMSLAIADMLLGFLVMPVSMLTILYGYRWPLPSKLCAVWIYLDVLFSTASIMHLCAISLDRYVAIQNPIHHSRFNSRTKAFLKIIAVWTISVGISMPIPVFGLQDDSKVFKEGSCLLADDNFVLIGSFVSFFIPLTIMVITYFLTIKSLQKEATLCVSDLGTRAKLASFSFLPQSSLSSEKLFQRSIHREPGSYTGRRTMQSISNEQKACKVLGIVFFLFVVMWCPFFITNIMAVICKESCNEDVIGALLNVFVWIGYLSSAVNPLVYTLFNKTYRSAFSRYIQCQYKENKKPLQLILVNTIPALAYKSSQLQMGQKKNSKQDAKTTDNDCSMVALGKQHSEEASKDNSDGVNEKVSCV
T1 sequence (P41595 whole entry): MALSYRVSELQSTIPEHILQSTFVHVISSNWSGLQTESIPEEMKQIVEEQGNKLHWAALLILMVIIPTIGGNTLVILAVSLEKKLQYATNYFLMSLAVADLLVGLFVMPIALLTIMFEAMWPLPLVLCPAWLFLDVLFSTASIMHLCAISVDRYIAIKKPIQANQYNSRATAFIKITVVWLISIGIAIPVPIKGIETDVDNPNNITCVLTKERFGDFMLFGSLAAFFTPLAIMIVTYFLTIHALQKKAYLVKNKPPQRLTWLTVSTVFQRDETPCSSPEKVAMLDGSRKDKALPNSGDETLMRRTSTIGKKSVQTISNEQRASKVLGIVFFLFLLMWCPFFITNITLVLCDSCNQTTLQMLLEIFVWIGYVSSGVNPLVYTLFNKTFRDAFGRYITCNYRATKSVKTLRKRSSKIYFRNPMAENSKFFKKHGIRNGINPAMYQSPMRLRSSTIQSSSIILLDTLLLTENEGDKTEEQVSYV
Sequence of D1 receptor (P21728 whole entry): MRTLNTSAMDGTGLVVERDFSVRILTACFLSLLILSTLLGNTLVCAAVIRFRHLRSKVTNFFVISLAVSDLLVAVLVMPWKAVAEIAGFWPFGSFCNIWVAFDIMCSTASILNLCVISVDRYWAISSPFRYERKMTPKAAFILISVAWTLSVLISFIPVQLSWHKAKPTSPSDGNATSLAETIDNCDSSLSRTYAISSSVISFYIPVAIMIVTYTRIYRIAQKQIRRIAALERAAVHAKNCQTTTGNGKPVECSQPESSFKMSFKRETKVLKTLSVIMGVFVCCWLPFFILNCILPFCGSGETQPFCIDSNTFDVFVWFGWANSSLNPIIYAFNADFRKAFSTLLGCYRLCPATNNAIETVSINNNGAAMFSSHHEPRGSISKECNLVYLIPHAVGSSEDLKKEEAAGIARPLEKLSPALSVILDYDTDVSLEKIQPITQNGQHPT
Sequence of D2 receptor (P14416 whole entry): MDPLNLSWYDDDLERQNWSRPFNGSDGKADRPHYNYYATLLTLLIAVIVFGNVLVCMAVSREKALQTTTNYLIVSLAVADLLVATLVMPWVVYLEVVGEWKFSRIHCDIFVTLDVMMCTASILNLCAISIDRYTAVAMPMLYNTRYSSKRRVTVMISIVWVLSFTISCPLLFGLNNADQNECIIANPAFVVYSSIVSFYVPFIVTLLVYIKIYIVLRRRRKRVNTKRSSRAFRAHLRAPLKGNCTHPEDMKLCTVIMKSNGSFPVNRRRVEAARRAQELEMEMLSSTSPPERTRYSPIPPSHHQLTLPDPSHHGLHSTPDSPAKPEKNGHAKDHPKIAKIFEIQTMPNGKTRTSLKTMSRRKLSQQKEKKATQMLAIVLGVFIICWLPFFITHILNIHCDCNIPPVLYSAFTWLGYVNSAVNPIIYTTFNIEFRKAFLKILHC

SMILES: CCN(CC)C(=O)[C@@H]1C=C2c3cccc4[nH]cc(c34)C[C@H]2N(CCC(F)(F)F)C1 [Compound 12, (6aR,9R)—N,N-diethyl-7-(3,3,3-trifluoropropyl)-4,6,6a,7,8,9-hexahydroindolo[4,3-fg]quinoline-9-carboxamide]
- EC50 (5-HT2B receptor): 154 nM
- EC50 (5-HT1A receptor): 2140 nM
- Ki (5-HT2A receptor [1]): 5.61 nM
- t1/2 [2]: 13.5 min
- microsomal CLint at 1 μM [2]: 103 µL/min/mg
- EC50 (5-HT1B receptor): 194 nM
- t1/2 [3]: 5.9 min
- microsomal CLint at 1 μM [3]: 236 µL/min/mg
- EC50 (5-HT2A receptor [4]): 52.9 nM
- EC50 (Alpha1A receptor): > 3160 nM
- t1/2 [5]: 2.1 min
- microsomal CLint at 1 μM [5]: 655 µL/min/mg

SMILES: CCN(CC)C(=O)[C@@H]1C=C2c3cccc4[nH]cc(c34)C[C@H]2N(CC2CC2)C1 [Compound 13, (6aR,9R)—N,N-diethyl-7-(cyclopropylmethyl)-4,6,6a,7,8,9-hexahydroindolo[4,3-fg]quinoline-9-carboxamide]
- EC50 (5-HT2B receptor): 182 nM
- EC50 (5-HT1A receptor): 15.3 nM
- Ki (5-HT2A receptor [1]): 2.23 nM
- t1/2 [2]: 21.1 min
- microsomal CLint at 1 μM [2]: 65.7 µL/min/mg
- EC50 (5-HT1B receptor): 98.6 nM
- t1/2 [3]: 27.7 min
- microsomal CLint at 1 μM [3]: 50 µL/min/mg
- EC50 (5-HT2A receptor [4]): 25.9 nM
- EC50 (Alpha1A receptor): 44.6 nM
- t1/2 [5]: 3.7 min
- microsomal CLint at 1 μM [5]: 376 µL/min/mg

SMILES: CCN(CC)C(=O)[C@@H]1C=C2c3cccc4[nH]cc(c34)C[C@H]2N(C)C1 [LSD, lysergic acid diethylamide, reference compound]
- EC50 (D2 receptor): 4.93 nM
- t1/2 [2]: 71.6 min
- microsomal CLint at 1 μM [2]: 19.4 µL/min/mg
- EC50 (D1 receptor): 4.87 nM
- EC50 (5-HT1B receptor): 2.06 nM
- t1/2 [3]: 60.2 min
- microsomal CLint at 1 μM [3]: 23 µL/min/mg
- Emax (5-HT2A receptor [6]): < 60%
- agonist type in arrestin recruitment assay (in words) (5-HT2A receptor [6]): partial agonists
- EC50 (Alpha1A receptor): 91.1 nM
- t1/2 [5]: 31.3 min
- microsomal CLint at 1 μM [5]: 44.2 µL/min/mg
